Laboratory results as given in patent publication US20190079094A1, “SUBCELLULAR LOCALIZATION OF TARGET ANALYTES” (Beckman Coulter, Inc., priority 2016, published 2019).
Entries after “also recorded” stand apart in the source; their conditions may differ.

How the values were obtained:
Assay type in all cases: cell-based
granulocytes = assay: Detergent titration for differential permeabilization of granulocytes (HSP60, Lamin A/C); settings: detergent alone
Description: FIG. 6. Titration of Detergents In Order to Identify the Optimal Concentrations for Cytoplasmic vs. Nuclear Membrane Permeabilization of Granulocytes. […] As in FIG. 5, HSP60 and Lamin A/C were used to indicate the degree of mitochondrial inner membrane and nuclear membrane permeabilization, respectively.
For Peripheral Blood Mononuclear Cells (PBMCs), cell lines, and other purified cells, Buffer 1 and Buffer 2 have different compositions than for whole blood; however, the protocol is otherwise the same. Most cell lines perform similar to PBMCs. In addition, whole-blood granulocytes may require a different buffer combination to appropriately permeabilize their cytoplasmic vs. nuclear compartments.
In some cases, using the defined buffers for the Subcellular Localization Kit may not effectively and reproducibly permeabilize granulocytes as they do mononuclear cells, and can be better targeted with a different detergent combination. […] Tween 20 at a concentration >0.5% can be seen to permeabilized the cytoplasmic+mitochondrial membranes without permeabilizing the nuclear membrane, while Digitonin and TX-100 alone at lower concentrations will permeabilize the nuclear or mitochondrial membranes, respectively. Ultimately, differential permeabilization of granulocytes can be more complex than for mononuclear cells depending on the target organelles.

[1] = test system: NF-κB and AKT signaling in whole-blood monocytes and T cells; assay: LPS stimulation of whole blood, cytoplasmic vs. nuclear signaling; settings: 1 μg/mL LPS
Experimental: FIGS. 7A and 7B. Stimulation of Monocytes with 1 μg/mL LPS. A) Comparison of the scatter profiles between Buffer 1 and Buffer 2 lysis, as well as the gating workflow. B) Cytoplasmic vs. nuclear signaling in whole-blood monocytes. C) Cytoplasmic vs. nuclear signaling in T cells.
(§1) The protocol for processing whole blood samples is as follows (see FIG. 1 for a workflow): 1) The sample is first mixed 1:1 with fixative, vortexed, and then incubated for 10 minutes. An extra control tube is included for each buffer, which is stained with all antibodies except for the specific signaling or target antibodies being tested in order to subtract the background signal. […] 6) Once stained, the samples are again washed 2× with PBS or wash buffer, resuspended in PBS+0.5% PFA, and read on a flow cytometer.
(§2) After data acquisition, the samples are gated, compensated, and analyzed as standard flow cytometry samples. […] For example, if staining for the subcellular distribution of FoxP3, where the Background MFIs for the Cytoplasm and Whole Cell are 1.5 and the raw FoxP3 signal is 3.5 and 31.5 for the Cytoplasm and Whole Cell, respectively, then the Cytoplasmic MFI would be calculated to be 2 (i.e., 3.5 (raw)−1.5 (background)=2) and the Nuclear MFI would be calculated to be 28 (i.e., 31.5 (raw)−1.5 (background)−2 (Cytoplasm)=28). […]

[2] = test system: CREB, RelA and ERK phosphorylation in monocytes; assay: Stimulation of monocytes with LPS or GM-CSF, cytoplasmic vs. nuclear signaling; settings: primarily cytoplasm, 1 μg/mL LPS or 100 ng/mL GM-CSF
Experimental: FIG. 8. Differential Signaling in Monocytes Induced by 1 μg/mL LPS vs. 100 ng/mL GM-CSF. A) Both LPS and GM-CSF induced CREB phosphorylation at S133, accumulating maximally in the nucleus by 10 min. B) LPS stimulation induced RelA phosphorylation maximally by 10 min in both the cytoplasm and nucleus, though predominantly in the nucleus. C) Both LPS and GM-CSF stimulated ERK phosphorylation primarily in the cytoplasm, maximally by 5 min for GM-CSF and 10 min for LPS.
as §1, with “signal. The background control may also be labeled with isotype-control antibodies for more precise determination of non-specific binding, especially in cells that have characteristically high non-specific binding, such as neutrophils. For indirect antibody labeling, omitting the primary antibody, but still utilizing the secondary antibody, is a common method for determining the degree of non-specific background signal attributable to the secondary antibody, which is typically higher than the direct conjugates of target antibodies.” for “signal.”
as §2

Compound	concentration permeabilizing the cytoplasmic+mitochondrial membranes without the nuclear membrane (granulocytes)	signaling induced in T cells [1]	time of peak ERK phosphorylation (S202/T204) [2]
CCCCCCCCCCCC(=O)OCCOCCOCCOCCOCCOCCOCCOCCOCCOCCOCCOCCOCCOCCOCCOCCOCCOCCOCCOCCOCC(OCCOCCOCCOCCOCCOCCOCCOCCOCCOCCOCCOCCOCCOCCOCCOCCOCCOCCOCCOCCO)C1OCC(OCCOCCOCCOCCOCCOCCOCCOCCOCCOCCOCCOCCOCCOCCOCCOCCOCCOCCOCCOCCO)C1OCCOCCOCCOCCOCCOCCOCCOCCOCCOCCOCCOCCOCCOCCOCCOCCOCCOCCOCCOCCO (stereo not drawn) [Tween 20, Polysorbate 20]	> 0.5%	–	–
lipopolysaccharide [LPS]	–	did not stimulate T cells; also recorded: lack of any signaling induced in T cells	≤ 10 min
